The source of these data is article PMC5667507, “A novel ^18F-labelled high affinity agent for PET imaging of the translocator protein” (Chemical Science, 2015).

The target in data set [1] is TSPO. The arrangement: method as in PMID 20045646. The conditions noted are these: printed in Fig. 2; cited from earlier work.
For data set [2] the following is noted: used for HSA column calibration; ref literature (SI ref 3); cited from earlier work.
Data set [3] has as its target T1, human serum albumin (HSA) (Homo sapiens, UniProt P02768).
T1 construct: purchased ChromTech HSA 5 µm (3.0 × 50 mm) column
Description: Human serum albumin (HSA) chromatography for %PPB. The conditions noted are these: human serum albumin (HSA) coated HPLC column, read-out: %PPB (percentage of plasma protein binding) (converted). It counts as in vitro ADME.

Data set [4] deals with T2, TSPO (Rattus norvegicus, UniProt P16257).
T2 construct: Whole brains from male Sprague-Dawley rats (200–300 g) were obtained; from tissue; host or cells: whole brain of male Sprague-Dawley rats, washed membrane homogenate
In words: Competition binding assay, displacement of [3H]-PK11195 in rat brain homogenates. The conditions noted are these: displacement of [3H]-PK11195, rat brain homogenates; mean ± SD of three independent experiments. The text has this: Competition Binding Assays
(6 pictures or pasted objects on this page, not shown here)
In general terms: In a radioligand displacement assay an active substance lowers the binding of a labelled ligand.

Data set [5] in a line: Stability testing in phosphate buffered saline at 37 °C (HPLC). It counts as physicochemical. The conditions noted are these: for Purity of Compound (stability testing): 1:1 PBS/acetonitrile, 37 °C. How it is done: The key physicochemical parameters of AB5186 6, permeability (P m), membrane partition coefficient (K m) and percentage of plasma protein binding (%PPB) were determined by high-performance liquid chromatography (HPLC) methods (Table 1).[23] […] As AB5186 6 contains a fluoroalkyl group, a potential alkylating agent, the stability of this compound was examined in simulated physiological conditions. […] The combination of a relatively strong C–F bond and the presence of bulky di-ortho-substituents impart a good level of stability.
3-(Fluoromethyl)-4-phenylquinoline-2-N-diethylcarboxamide (6) (2 mg, […]) was dissolved in a 1:1 mixture of […] phosphate buffered saline and acetonitrile (2 mL) and incubated at 37 ° C. 5 µL of the solution was injected onto the HPLC system (conditions described as below in section 7) at various time points (0, 1, 2, 4, 6 and 24 h). The purity of the compound at these time points was detemined by measuring the area under the peaks of the resultant UV

T1 sequence (P02768 25-609): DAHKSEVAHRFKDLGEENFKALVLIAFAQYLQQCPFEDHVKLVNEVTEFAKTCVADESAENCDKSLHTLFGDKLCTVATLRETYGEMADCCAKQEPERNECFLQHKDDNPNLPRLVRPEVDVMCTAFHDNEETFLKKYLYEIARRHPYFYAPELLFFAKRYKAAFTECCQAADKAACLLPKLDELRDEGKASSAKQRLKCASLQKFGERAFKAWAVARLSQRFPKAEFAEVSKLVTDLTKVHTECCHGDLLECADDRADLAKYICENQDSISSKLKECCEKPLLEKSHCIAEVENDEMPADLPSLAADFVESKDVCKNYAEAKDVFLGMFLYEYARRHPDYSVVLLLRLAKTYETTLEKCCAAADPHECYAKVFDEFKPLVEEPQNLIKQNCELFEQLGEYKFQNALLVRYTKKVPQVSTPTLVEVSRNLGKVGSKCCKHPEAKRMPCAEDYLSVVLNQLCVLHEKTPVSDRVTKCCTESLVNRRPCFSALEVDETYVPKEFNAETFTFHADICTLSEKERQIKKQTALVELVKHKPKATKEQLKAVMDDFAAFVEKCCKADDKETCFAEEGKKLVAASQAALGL

As usually defined, the Ki is the dissociation constant of the complex between target and ligand, obtained from inhibition or displacement. Consider “4-(2-iodophenyl)quinoline-2-carboxamide [compound 5]”, for which, in data set [1], the Ki is 5.01 nM.
For “3-iodomethylquinoline-2-carboxamide [compound 4]”, the inhibition constant Ki in data set [1] is 12 nM.
On to `CCCC1O[C@@H]2C[C@H]3[C@@H]4CCC5=CC(=O)C=C[C@]5(C)[C@H]4[C@@H](O)C[C@]3(C)[C@]2(C(=O)CO)O1` (stereo partly drawn) [budesonide], for which the “%PPB (literature value of calibration standard)” value (shortened to “%PPB”) in data set [2] was 88.0%.
For `CNC(=C[N+](=O)[O-])NCCSCc1csc(CN(C)C)n1` [nizatidine], the “%PPB” value in data set [2] was 35.0%.
As to `O=C1CN=C(c2ccccn2)c2cc(Br)ccc2N1` [bromazepam], in data set [2], the “%PPB” value is reported as 60.0%.
`CCC(C)N(C)C(=O)c1cc2ccccc2c(-c2ccccc2Cl)n1` (stereo not drawn) [PK11195 1, reference compound]: the fraction unbound at 0.5 mg/mL in data set [3] is 0.085.
In turn, `CCN(CC)C(=O)c1nc2ccccc2c(-c2ccccc2)c1CF` [AB5186 6, 3-(Fluoromethyl)-4-phenylquinoline-2-N-diethylcarboxamide] registered an inhibition constant (Ki) in data set [4] of 2.8 ± 0.8 nM. Also, in data set [3], the fraction unbound at 0.5 mg/mL was 0.103. In addition, the “Purity of Compound (stability testing)” value came to 98.81% in data set [5] (time 0 h); 98.75% in data set [5] (time 1 h); 98.76% in data set [5] (time 2 h); 98.80% in data set [5] (time 4 h); 98.78% in data set [5] (time 6 h); 91.94% in data set [5] (time 24 h). Besides, the decomposition in data set [5] (phosphate buffered saline pH 7.4, 37 °C, after 6 hours) was determined as 0.03%.
